Source: patent publication US20060069132A1, “Azolecarboxamide herbicides” (priority 2004, published 2006)

Legend:
[1] = system: barnyardgrass; experiment: Test B flooded paddy test; format: in vivo, Echinochloa crus-galli; conditions: 1000 g ai/ha, scale 0 to 100 (0 no effect, 100 complete control)
Method in brief: (§1)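 Formulated test chemicals went onto postemergence plants measuring 2 to 18 cm, at one to four leaves. For the paddy assay, species had reached two leaves. Scoring took place 13–15 days later by eye, relative to untreated plants, using 0 for no effect up to 100 for full control.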

[2] = system: barnyardgrass; experiment: Test A pre-/postemergence herbicide test; format: in vivo, Echinochloa crus-galli
Method in brief: (§2)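 Both application timings were run together: directed soil spray over freshly planted seeds in sandy loam, and runoff spray onto 2–10 cm seedlings. Evaluation after ~10 days in greenhouse used a 0–100 visual scale versus untreated controls.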

[3] = system: velvetleaf; experiment: Test B pre-/postemergence herbicide test; format: in vivo, Abutilon theophrasti; conditions: for Velvetleaf plant response rating: postemergence
Method in brief: (§3)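 Plants compared with untreated controls 13–15 days post-treatment and given a visual 0–100 injury score. Applications: preemergence to seeds; postemergence at 1- to 4-leaf (2–18 cm); paddy species flooded, 2-leaf stage. Vehicle non-phytotoxic, surfactant included.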

[4] = system: large crabgrass; experiment: Test A pre-/postemergence herbicide test; format: in vivo, Digitaria sanguinalis
Method in brief: as §2

[5] = system: lambsquarters; experiment: Test B pre-/postemergence herbicide test; format: in vivo, Chenopodium album; conditions: for Lambsquarters plant response rating: postemergence
Method in brief: as §3

[6] = system: Surinam grass; experiment: Test B pre-/postemergence herbicide test; format: in vivo, Urochloa decumbens; conditions: for Surinam Grass plant response rating: postemergence
Method in brief: as §3

[7] = system: barnyardgrass; experiment: Test B pre-/postemergence herbicide test; format: in vivo, Echinochloa crus-galli; conditions: for Barnyardgrass plant response rating: postemergence
Method in brief: as §3

[8] = system: wheat; experiment: Test B postemergence herbicide test; format: in vivo, Triticum aestivum; set-up: key to Wheat plant response rating: 0 = no effect, 100 = complete control; conditions: postemergence
Method in brief: (§4)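 Treated at 2-leaf (paddy) or 1–4-leaf, 2–18 cm (postemergence); greenhouse 13–15 d; visual score vs control, 0 none to 100 complete control; dash = not tested.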

[9] = system: morningglory; experiment: Test B pre-/postemergence herbicide test; format: in vivo, Ipomoea coccinea; conditions: for Morningglory plant response rating: postemergence
Method in brief: as §3

[10] = system: giant foxtail; experiment: Test B pre-/postemergence herbicide test; format: in vivo, Setaria faberi; conditions: for Foxtail, Giant plant response rating: postemergence
Method in brief: as §3

[11] = system: rice; experiment: Test B flooded paddy test; format: in vivo, Oryza sativa; conditions: 1000 g ai/ha, scale 0 to 100 (0 no effect, 100 complete control)
Method in brief: as §1

[12] = system: small flower umbrella sedge; experiment: Test B flooded paddy test; format: in vivo, Cyperus difformis; conditions: 1000 g ai/ha, scale 0 to 100 (0 no effect, 100 complete control)
Method in brief: as §1

[13] = system: pigweed; experiment: Test B pre-/postemergence herbicide test; format: in vivo, Amaranthus retroflexus; conditions: for Pigweed plant response rating: postemergence
Method in brief: as §3

[14] = system: morningglory; experiment: Test A pre-/postemergence herbicide test; format: in vivo, Ipomoea spp.
Method in brief: as §2

[15] = system: wild oat; experiment: Test B postemergence herbicide test; format: in vivo, Avena fatua; conditions: postemergence
Method in brief: as §4

[16] = system: blackgrass; experiment: Test B postemergence herbicide test; format: in vivo, Alopecurus myosuroides; conditions: postemergence
Method in brief: as §1

[17] = system: corn; experiment: Test B pre-/postemergence herbicide test; format: in vivo, Zea mays; conditions: for Corn plant response rating: postemergence
Method in brief: as §3

[18] = system: cocklebur; experiment: Test B pre-/postemergence herbicide test; format: in vivo, Xanthium strumarium; conditions: for Cocklebur plant response rating: postemergence
Method in brief: as §3

[19] = system: large crabgrass; experiment: Test B pre-/postemergence herbicide test; format: in vivo, Digitaria sanguinalis; conditions: for Crabgrass, Large plant response rating: postemergence
Method in brief: as §3

[20] = system: velvetleaf; experiment: Test A pre-/postemergence herbicide test; format: in vivo, Abutilon theophrasti
Method in brief: as §2

[21] = system: redroot pigweed; experiment: Test A pre-/postemergence herbicide test; format: in vivo, Amaranthus retroflexus
Method in brief: as §2

[22] = system: ducksalad; experiment: Test B flooded paddy test; format: in vivo, Heteranthera limosa; conditions: 1000 g ai/ha, scale 0 to 100 (0 no effect, 100 complete control)
Method in brief: as §1

[23] = system: giant foxtail; experiment: Test A pre-/postemergence herbicide test; format: in vivo, Setaria faberi
Method in brief: as §2

[24] = Postemergence, 500 g ai/ha, 0 to 100 scale, 0 no effect, 100 complete control
[25] = Postemergence, 2000 g ai/ha, 0 to 100 scale, 0 no effect, 100 complete control
[26] = Preemergence, 2000 g ai/ha, visual rating, 0 to 100 scale (0 no effect, 100 complete control)
[27] = preemergence, 500 g ai/ha, visual injury, 0 to 100 scale (0 no effect, 100 complete control)
[28] = 125 g ai/ha, 0 is no effect, 100 is complete control, preemergence
[29] = 125 g ai/ha, visual rating, scale 0 (no effect) to 100 (complete control)
[30] = 500 g ai/ha, scale 0 to 100, 0 is no effect, 100 is complete control
[31] = 500 g ai/ha, visual rating, 0 = no effect, 100 = complete control, preemergence

CCn1nc(C(C)(C)C)cc1C(=O)Nc1cc(OC)ccc1F [Compound 347]
Barnyardgrass plant response rating [1]: 0 | Barnyardgrass plant response rating [2, 24]: 0 | Plant response rating, Barnyardgrass [2, 25]: 0 | Barnyardgrass plant response rating [2, 26]: 0 | Barnyardgrass plant response rating [2, 27]: 0 | Plant response rating (0 to 100 scale), Velvetleaf [3, 28]: 0 | Velvetleaf plant response rating [3, 29]: 0 | Velvetleaf plant response rating [3, 30]: 0 | Crabgrass, Large plant response rating [4, 24]: 0 | Plant response rating, Crabgrass, Large [4, 25]: 0 | Crabgrass, Large plant response rating [4, 26]: 0 | Crabgrass, Large plant response rating [4, 27]: 0 | Plant response rating (0 to 100 scale), Lambsquarters [5, 28]: 0 | Lambsquarters plant response rating [5, 29]: 10 | Plant response rating, Lambsquarters [5, 31]: 0 | Lambsquarters plant response rating [5, 30]: 10 | Plant response rating (0 to 100 scale), Surinam Grass [6, 28]: 0 | Surinam Grass plant response rating [6, 29]: 0 | Plant response rating, Surinam Grass [6, 31]: 0 | Surinam Grass plant response rating [6, 30]: 0 | Plant response rating (0 to 100 scale), Barnyardgrass [7, 28]: 0 | Barnyardgrass plant response rating [7, 29]: 0 | Plant response rating, Barnyardgrass [7, 31]: 0 | Barnyardgrass plant response rating [7, 30]: 0 | Wheat plant response rating [8, 29]: 0 | Wheat plant response rating [8, 30]: 0 | Plant response rating (0 to 100 scale), Morningglory [9, 28]: 0 | Morningglory plant response rating [9, 29]: 0 | Plant response rating, Morningglory [9, 31]: 0 | Morningglory plant response rating [9, 30]: 10 | Plant response rating (0 to 100 scale), Foxtail, Giant [10, 28]: 0 | Foxtail, Giant plant response rating [10, 29]: 0 | Plant response rating, Foxtail, Giant [10, 31]: 0 | Foxtail, Giant plant response rating [10, 30]: 0 | Rice plant response rating [11]: 0 | Sedge, Umbrella plant response rating [12]: 0 | Plant response rating (0 to 100 scale), Pigweed [13, 28]: 0 | Pigweed plant response rating [13, 29]: 0 | Plant response rating, Pigweed [13, 31]: 0 | Pigweed plant response rating [13, 30]: 10 | Morningglory plant response rating [14, 24]: 0 | Plant response rating, Morningglory [14, 25]: 0 | Morningglory plant response rating [14, 26]: 0 | Morningglory plant response rating [14, 27]: 0 | Oat, Wild plant response rating [15, 29]: 0 | Oat, Wild plant response rating [15, 30]: 20 | Blackgrass plant response rating [16, 29]: 30 | Blackgrass plant response rating [16, 30]: 30 | Plant response rating (0 to 100 scale), Corn [17, 28]: 0 | Corn plant response rating [17, 29]: 0 | Plant response rating, Corn [17, 31]: 0 | Corn plant response rating [17, 30]: 0 | Plant response rating (0 to 100 scale), Cocklebur [18, 28]: 0 | Cocklebur plant response rating [18, 29]: 0 | Plant response rating, Cocklebur [18, 31]: 0 | Cocklebur plant response rating [18, 30]: 0 | Plant response rating (0 to 100 scale), Crabgrass, Large [19, 28]: 0 | Crabgrass, Large plant response rating [19, 29]: 0 | Plant response rating, Crabgrass, Large [19, 31]: 0 | Crabgrass, Large plant response rating [19, 30]: 0 | Velvetleaf plant response rating [20, 24]: 0 | Plant response rating, Velvetleaf [20, 25]: 0 | Velvetleaf plant response rating [20, 26]: 0 | Velvetleaf plant response rating [20, 27]: 0 | Pigweed plant response rating [21, 24]: 0 | Plant response rating, Pigweed [21, 25]: 0 | Pigweed plant response rating [21, 26]: 0 | Pigweed plant response rating [21, 27]: 0 | Ducksalad plant response rating [22]: 0 | Foxtail, Giant plant response rating [23, 24]: 0 | Plant response rating, Foxtail, Giant [23, 25]: 0 | Foxtail, Giant plant response rating [23, 26]: 0 | Foxtail, Giant plant response rating [23, 27]: 0
